{"source": "paper PMC8618880", "about": "“Discovery of GOT1 Inhibitors from a Marine-Derived Aspergillus terreus That Act against Pancreatic Ductal Adenocarcinoma” (Marine Drugs, 2021)", "key": {"[1]": {"target": "T1, GOT1 (Homo sapiens, UniProt P17174)", "T1 sequence (P17174 whole entry)": "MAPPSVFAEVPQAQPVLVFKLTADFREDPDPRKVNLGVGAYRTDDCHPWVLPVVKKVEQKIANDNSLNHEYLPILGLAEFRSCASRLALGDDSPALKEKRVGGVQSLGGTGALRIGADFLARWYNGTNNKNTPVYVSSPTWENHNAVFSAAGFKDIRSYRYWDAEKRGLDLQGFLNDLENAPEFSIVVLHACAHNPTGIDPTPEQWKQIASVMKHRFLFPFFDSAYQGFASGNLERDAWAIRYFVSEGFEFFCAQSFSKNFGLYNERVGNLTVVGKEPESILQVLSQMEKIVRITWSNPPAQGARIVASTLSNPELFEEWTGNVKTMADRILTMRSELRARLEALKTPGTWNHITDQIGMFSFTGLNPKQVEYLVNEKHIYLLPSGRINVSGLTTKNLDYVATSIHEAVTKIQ", "assay": "GOT1 enzymatic activity (inhibition) assay, MDH-coupled, absorbance 340 nm", "type": "biochemical", "conditions": "in vitro, read-out: GOT1-inhibitory activity IC50", "description": "The GOT1 enzymatic activity assay was carried out using a 96-well plate reader as previously reported. The 100 μL reaction system contained 0.1 mg/mL recombinant GOT1 protein, 1 mM α -KG, 1 mM NADH, 4 mM Asp, and 1 U/mL malate dehydrogenase, and measured absorbance at a wavelength of 340 nm. The degree of absorbance decrease was in direct proportion to GOT1 activity. The inhibitory activity in vitro was measured by adding different concentrations of compounds. SigmaPlot with the PlotEnzyme Kinetics Module was used to analyze the enzyme activity."}, "[2]": {"target": "T1, GOT1", "assay": "Microscale thermophoresis (MST) binding to GOT1", "conditions": "read-out: Kd value between AH and GOT1", "description": "The Monolith NTTM Protein Labeling Kit was used to test the binding capacity of proteins to AH, according to the manufacturer’s instructions. GOT1 was labeled and diluted in a buffer containing 20 mM HEPES (pH 7.5) and Tween-20 (0.5 (v/v)%), and then incubated with different concentration of AH for 10 min at 37 °C. Subsequently, the materials were put into standard capillary tubes and tested for thermophoresis using a Monolith NT.115 instrument (NanoTemper Technologies, München, Germany). The parameters were set to temperature 25 °C, LED power 100%, and laser power 40%, with a 30 s on-time. NTAnalysis software was used to calculate the Kd values."}, "[3]": {"system": "SW1990, PANC-1, and AsPC-1 cell lines", "assay": "MTT cell viability assay, PDAC cell lines", "type": "cell-based", "conditions": "Homo sapiens, 48 h, read-out: cytotoxicity IC50", "description": "(§1) Pancreas (SW1990, AsPC-1, PANC-1), colorectal (HCT116), breast (HCC1806, MM231, MM453), and ovarian cancer cells (ES2), along with a nonmalignant human pancreatic duct epithelial cell line (HDPE6C7), were obtained from ATCC, and were cultured in 1640 medium or Dulbecco’s modified Eagle medium (DMEM) supplemented with 10% (v/v) fetal bovine serum (FBS), 100 μg/mL streptomycin, and 100 U/mL penicillin. Cells were maintained in a humidified atmosphere of 5% CO2 at 37 °C. MTT (3-(4,5-dimethylthiazol-2-yl)-2,5-diphenyl tetrazolium bromide) assay was used to assess the cell viability. Briefly, cells were seeded in 96-well plates at a density of 5 × 10^3 cells per well for 24 h. Then, the medium was removed, and the cells were treated with different concentrations (0.1–100 μM) of AH, with DMSO as a vehicle control. After incubation for 48 h, 100 μL of MTT solution (2 mg/mL) was added to each well, and the wells were incubated at 37 °C for another 4 h. The formed formazan crystals were dissolved in DMSO (200 μL/well) and shaken for 5 min. Then, the absorbance of the solution was measured at 490 nm with a microplate reader. IC50 values were interpolated from the resulting dose-dependent curves using GraphPad Prism 7.0. The reported IC50 values are the average of three independent experiments, each consisting of six replicates per concentration level (overall n = 18)."}, "[4]": {"assay": "MTT cell viability assay, nonmalignant pancreatic duct epithelial cells", "type": "cell-based", "conditions": "human, HPDE6C7 nonmalignant pancreatic duct epithelial cells, read-out: cytotoxicity IC50", "description": "as §1"}, "[5]": {"system": "SW1990 cells", "assay": "Annexin V-FITC/PI apoptosis assay by flow cytometry", "type": "cell-based, human", "conditions": "48 h", "description": "The Annexin V–FITC apoptosis kit was purchased from USA BD PharMingen™. In brief, different concentrations of AH were added to the wells for 48 h, and then the cells were harvested, before being resuspended in Annexin-binding buffer and incubated with Annexin V–FITC (10 mg/mL) and PI in the dark for 15 min. Flow cytometry was used to detect the stained cells and analyze the apoptosis immediately."}, "[6]": {"system": "SW1990 cells", "assay": "Cell cycle assay, PI staining, flow cytometry", "type": "cell-based, human", "description": "The phase distribution of DNA content was determined via propidium iodide (PI) staining. Cells were treated with varying doses of AH or vehicle for 48 h, and then the cell pellets were stained in the dark for 30 min with 60 μg/mL RNase A and 30 μg/mL PI. Finally, CellQuest software (Becton-Dickinson, Franklin Lakes, NJ, USA) was used to perform flow cytometric studies. Three separate experiments were used to determine the cell cycle."}, "[7]": {"system": "SW1990 cells", "assay": "Metabolite abundance and NADPH/NADP+ ratio in cells", "type": "cell-based, human", "conditions": "AH 10, 20 or 40 µM", "description": "SW1990 cells were cultivated to around 50% confluence in DMEM media with 10 mM glucose, 2 mM glutamine, and 5% FBS. A complete medium was prepared prior to two hours of metabolite collection. Quantification kits were used to determine the abundance of Asp (Abcam, #ab102512, Cambridge, UK), Gln (BioVision, #K55, San Francisco, CA, USA), malate (BioVision, #K637, San Francisco, CA, USA), and OAA (Abcam, #ab83428, Cambridge, UK). According to the manufacturer’s instructions, we collected some cells and homogenized them in the buffers provided. The supernatants were centrifuged, and then deproteinized using a 10 K spin column before being analyzed and compared to standard curves."}, "[8]": {"system": "SW1990 cells", "assay": "Intracellular ROS measurement with DCFDA", "type": "cell-based, human", "conditions": "AH 10, 20 or 40 µM", "source_text": "GOT1 is a key enzyme that is involved in the production of Gln-dependent NADPH in PDAC, and catalyzes the reversible conversion of Asp to OAA. To investigate the effects of AH on Gln metabolism, the associated metabolites including OAA and malate (Mal) were detected. […] As excessive reactive oxygen species (ROS) can enhance cellular oxidative stress—resulting in damage to DNA, proteins, or lipids, causing apoptosis or necrosis [29]—we examined the physiological correlation between AH treatment and ROS response. 2,7-Dichlorofluorescein diacetate (DCFDA) was used to measure the intracellular ROS levels."}, "[9]": {"system": "SW1990 cells", "assay": "EDU staining and wound-healing cell migration test", "type": "cell-based, human", "conditions": "0-40 µM, 0-48 h", "description": "SW1990 cells were seeded in 6-well plates for 24 h. Each well was scratched with a 10 μL pipette tip, and then the plate was washed with PBS to peel off the suspended cells, before adding different concentrations of AH (0–40 μM). Images from the same area of the wound were taken separately under a microscope from 0 to 48 h."}, "[10]": {"system": "SW1990 xenografts", "assay": "SW1990 xenograft in CB-17/SCID mice", "type": "in vivo", "description": "Animal treatment and experiments were conducted in the Experimental Animal Center. Commercial 8-week-old CB-17/SCID mice (male) were purchased from Huafukang, China. After being resuspended using 0.1 mL of PBS, SW1990 cells (3 × 10^6) were injected subcutaneously into the lower flanks of the mice. When the tumors attained a diameter of ~3 mm, the mice were randomly divided into three groups—2.5 mg/kg, 5 mg/kg, and control—and were subsequently injected intraperitoneally with normal saline or AH every day. A Vernier caliper was used to measure the size of the tumors. After two weeks of therapy, mice were euthanized under deep anesthesia (chloral hydrate, 10%, 10 μL/g), and tumor tissue metabolites were detected using the above method. All animal studies were carried out in accordance with the Huazhong University of Science and Technology’s guidelines."}, "[11]": {"conditions": "2.5 and 5 mg/kg/d intraperitoneal, 14 days"}, "[12]": {"conditions": "tumor tissue after 14 days treatment"}}, "data": [{"molecule": "CO[C@H]1OC(=O)C(c2ccc(O)cc2)=C1Cc1ccc(O)c(CC=C(C)C)c1", "note": "[Compound 5, (+)-asperteretone B]", "values": [{"measurement": "IC50", "setting": "[1]", "result": "19.16 ± 0.15", "unit": "µM"}]}, {"molecule": "CC(C)=CCc1cc(/C=C2\\OC(=O)C(c3ccc(O)c(CC=C(C)C)c3)=C2O)ccc1O", "note": "[Compound 6, aspulvinone H]", "values": [{"measurement": "IC50", "setting": "[1]", "result": "5.91 ± 0.04", "unit": "µM"}, {"measurement": "Kd", "setting": "[2]", "result": "2.14 ± 0.47", "unit": "µM"}, {"measurement": "IC50", "setting": "[3]", "result": "6.32 to 10.5", "unit": "µM"}, {"measurement": "IC50 at 48 h", "setting": "[4]", "result": "> 100", "unit": "µM"}, {"measurement": "apoptosis induction rate", "setting": "[5]; SW1990, 10 µM", "result": 9.5, "unit": "%"}, {"measurement": "apoptosis induction rate", "setting": "[5]; SW1990, 40 µM", "result": 80.2, "unit": "%"}, {"measurement": "proportion of S-phase cells", "setting": "[6]; SW1990, 10 µM", "result": 32.5, "unit": "%"}, {"measurement": "proportion of cells in G0/G1 phase", "setting": "[6]; SW1990, 10 µM", "result": 59.4, "unit": "%"}, {"measurement": "proportion of S-phase cells", "setting": "[6]; SW1990, 20 µM", "result": 38.6, "unit": "%"}, {"measurement": "proportion of cells in G0/G1 phase", "setting": "[6]; SW1990, 20 µM", "result": 48.6, "unit": "%"}, {"measurement": "proportion of S-phase cells", "setting": "[6]; SW1990, 40 µM", "result": 43.9, "unit": "%"}, {"measurement": "proportion of cells in G0/G1 phase", "setting": "[6]; SW1990, 40 µM", "result": 43.5, "unit": "%"}, {"measurement": "change in G2/M phase", "setting": "[6]; SW1990, high-dose AH", "result": "only a slight increase"}, {"measurement": "content of Asp", "setting": "[7]", "result": "increasing"}, {"measurement": "content of Mal", "setting": "[7]", "result": "reduced"}, {"measurement": "content of OAA", "setting": "[7]", "result": "reduced"}, {"measurement": "ratio of NADPH/NADP+", "setting": "[7]", "result": "remarkably decreased"}, {"measurement": "intracellular ROS level", "setting": "[8]", "result": "positively correlated"}, {"measurement": "proliferation and migration (EDU staining, wound healing)", "setting": "[9]", "result": "anti-proliferative effect"}, {"measurement": "body weight of the mice", "setting": "[10]; [11]", "result": "no significant changes"}, {"measurement": "histomorphology of the mice", "setting": "[10]; [11]", "result": "no significant changes"}, {"measurement": "tumor volume vs control group", "setting": "[10]; 2.5 and 5 mg/kg/d intraperitoneal, 14 days, CB-17/SCID mice", "result": "significantly smaller"}, {"measurement": "tumor tissue Asp", "setting": "[10]; [12]", "result": "increased"}, {"measurement": "tumor tissue Gln", "setting": "[10]; [12]", "result": "increased"}, {"measurement": "tumor tissue Mal", "setting": "[10]; [12]", "result": "decreased"}, {"measurement": "tumor tissue OAA", "setting": "[10]; [12]", "result": "decreased"}, {"measurement": "tumor tissue proportion of NADPH/NADP+", "setting": "[10]; [12]", "result": "decrease"}]}, {"molecule": "COC(=O)[C@]1(Cc2ccc(O)c(CC=C(C)C)c2)OC(=O)C(O)=C1c1ccc(O)c(CC=C(C)C)c1", "note": "[Compound 12, (+)-3′,3′-di-(dimethylallyl)-butyrolactone II]", "values": [{"measurement": "IC50", "setting": "[1]", "result": "26.38 ± 0.1", "unit": "µM"}]}]}
